Experimental data as given in US20130225629A1, “TARGETING PI3K/MTOR SIGNALLING AND NEUTROPHIL RECRUITMENT FOR TREATMENT OF ENTERITIS” (THE UNIVERSITY OF NORTH CAROLINA AT CHAPEL HILL, priority 2012, published 2013).

Experiments:
[1] = tested on: C. jejuni; experiment: FISH for C. jejuni in colon; format: in vivo; details: AS252424-treated mice
Procedure: Cy3-tagged 5′[…]3′ (SEQ ID NO: 1; Poppert et al., 2008) was used to probe the presence of C. jejuni. Deparaffinized, formalin-fixed 5 μm thick sections were incubated for 15 minutes in lysozyme (300,000 Units/ml lysozyme; Sigma-Aldrich, St. Louis, Mo., United States of America) buffer (25 mM Tris pH 7.5, 10 mM EDTA, 585 mM sucrose, and 0.3 mg/ml sodium taurocholate) at room temperature and hybridized overnight at 46° C. in hybridization chambers with the oligonucleotide probe (final concentration of 5 ng/μl in a solution of 30 percent formamide, 0.9 M sodium chloride, 20 mM Tris pH 7.5, and 0.01% sodium dodecyl sulfate). Tissue sections were washed for 20 minutes at 48° C. in washing buffer (0.9 M sodium chloride, 20 mM Tris pH 7.5) and once in distilled water for 10 seconds, dried at 46° C., mounted with DAPI mount media, and imaged using a Zeiss (Carl Zeiss, Thornwood, N.Y., United States of America) LSM710 Spectral Confocal Laser Scanning Microscope system with ZEN 2008 software. Acquired images were analyzed using BioimageXD. (Kankaanpaa et al., 2006). […]
Cy3-tagged 5′[…]3′ (SEQ ID NO: 1) was used to probe the presence of C. jejuni in the intestinal tissue sections as previously described (Sun et al., 2012). […] Acquired images were analyzed using BioimageXD (Kankaanpaa et al., 2006).

[2] = tested on: CMT-93 cells; experiment: C. jejuni epithelial cell translocation assay (transwell); format: cell-based, Murine; details: 10 μM AS252424, transwell, up to 5 hrs
Procedure: Murine rectal carcinoma epithelial CMT-93 cells (1×10^6) were plated onto 12-well Transwells (Corning Inc., Corning, N.Y., United States of America) in DMEM media containing 10% FBS and 2 mM L-glutamine. Upon reached confluency (monolayer), the medium was changed to 1% FBS medium and 10^8 C. jejuni was added to the upper inserts in presence or absence of 10 μM AS252424. Aliquot of medium from bottom wells was collected every hr for 5 hrs, serially diluted and cultured on Remel (Remel, Thermo Scientific, Hampton, N.H., United States of America) plates as described before (Sun et al., 2012). Translocated C. jejuni was reported as CFU/ml at each time point.

[3] = tested on: NF-κB; experiment: NF-κB-driven EGFP expression in colon (macroimaging, Western blot, confocal); format: in vivo; details: AS252424-treated vs vehicle-treated mice
Procedure: Whole tissues were lysed in Laemmli buffer and 20 μg of protein was separated by SDS-PAGE, transferred to nitrocellulose membranes and protein detected using enhanced chemiluminescence reaction (ECL) as described previously. (Lippert et al., 2009). Primary antibodies used were phospho-p70S6K (T389) and p70S6K (Cell Signaling, Danvers, Mass., United States of America), EGFP (Sigma, St. Louis, Mo., United States of America), LC3 I/II (MBL) and Actin.
II10^−/−; NF-κB^EGFP mice were sacrificed; the colon was dissected and immediately imaged using a charge-coupled device camera in a light-tight imaging box with a dual-filtered light source and emission filters specific for EGFP (LT-99D2 Illumatools; Lightools Research, Encinitas, Calif., United States of America). For microimaging, colonic segments were cut open and fixed in 4% paraformaldehyde overnight at 4° C., and then permeabilized in 2% triton overnight at 4° C. The tissues were then immersed in FocusClear (CelExplorer labs) and then stained with DAPI. […]
A segment of the distal colon was lysed in 300 μl Laemmli buffer, homogenized and heated at 95° C. for 5 min. […] Targeted protein was detected using enhanced chemiluminescence reaction (ECL) as described previously (Muhlbauer et al., 2008). […] The density of Western blot bands was quantified using ImageJ and data were normalized to total AKT control. […]

SMILES: O=C1NC(=O)/C(=C/c2ccc(-c3ccc(F)cc3O)o2)S1 [AS252424]
- C. jejuni in colon (FISH, confocal) [1]: barely detectable
- C. jejuni translocation across CMT-93 monolayer [2]: did not prevent
- induction of EGFP expression (NF-κB activity) in the colon [3]: reduced
